Like-named read-outs stand apart in the source and are kept apart here. No end group written: not given here.
T1: human TAS1R2-WT/TAS1R3-G832R (Homo sapiens, UniProt Q7RTX0+Q8TE23, G832R)
T1 construct: expressed in transfected cells; host or cells: HEK293T stably expressing Gα16gust44
T1 sequence (Q8TE23 20-839): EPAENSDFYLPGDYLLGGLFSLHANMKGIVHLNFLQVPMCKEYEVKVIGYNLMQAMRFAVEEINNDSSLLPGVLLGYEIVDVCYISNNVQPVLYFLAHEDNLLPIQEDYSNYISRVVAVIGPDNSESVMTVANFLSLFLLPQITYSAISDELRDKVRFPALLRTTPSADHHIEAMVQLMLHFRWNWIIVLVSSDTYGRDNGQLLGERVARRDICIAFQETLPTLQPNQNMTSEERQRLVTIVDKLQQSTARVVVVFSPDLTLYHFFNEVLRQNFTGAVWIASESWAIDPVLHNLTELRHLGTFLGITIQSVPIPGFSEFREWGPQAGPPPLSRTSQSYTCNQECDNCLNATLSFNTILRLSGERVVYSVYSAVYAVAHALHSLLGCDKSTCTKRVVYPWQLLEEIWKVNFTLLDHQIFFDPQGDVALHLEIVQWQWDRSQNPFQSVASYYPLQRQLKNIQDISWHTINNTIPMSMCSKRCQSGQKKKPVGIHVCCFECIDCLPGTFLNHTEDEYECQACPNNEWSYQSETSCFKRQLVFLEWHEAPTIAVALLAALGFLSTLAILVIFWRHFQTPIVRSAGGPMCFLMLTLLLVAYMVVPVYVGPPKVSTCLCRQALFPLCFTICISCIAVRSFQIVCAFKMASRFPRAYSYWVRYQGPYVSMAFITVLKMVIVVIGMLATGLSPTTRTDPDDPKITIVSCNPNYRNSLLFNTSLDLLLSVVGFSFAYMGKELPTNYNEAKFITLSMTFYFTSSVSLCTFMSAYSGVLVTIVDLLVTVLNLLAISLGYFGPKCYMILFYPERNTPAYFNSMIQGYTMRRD
T1 sequence (Q7RTX0 21-852 G832R): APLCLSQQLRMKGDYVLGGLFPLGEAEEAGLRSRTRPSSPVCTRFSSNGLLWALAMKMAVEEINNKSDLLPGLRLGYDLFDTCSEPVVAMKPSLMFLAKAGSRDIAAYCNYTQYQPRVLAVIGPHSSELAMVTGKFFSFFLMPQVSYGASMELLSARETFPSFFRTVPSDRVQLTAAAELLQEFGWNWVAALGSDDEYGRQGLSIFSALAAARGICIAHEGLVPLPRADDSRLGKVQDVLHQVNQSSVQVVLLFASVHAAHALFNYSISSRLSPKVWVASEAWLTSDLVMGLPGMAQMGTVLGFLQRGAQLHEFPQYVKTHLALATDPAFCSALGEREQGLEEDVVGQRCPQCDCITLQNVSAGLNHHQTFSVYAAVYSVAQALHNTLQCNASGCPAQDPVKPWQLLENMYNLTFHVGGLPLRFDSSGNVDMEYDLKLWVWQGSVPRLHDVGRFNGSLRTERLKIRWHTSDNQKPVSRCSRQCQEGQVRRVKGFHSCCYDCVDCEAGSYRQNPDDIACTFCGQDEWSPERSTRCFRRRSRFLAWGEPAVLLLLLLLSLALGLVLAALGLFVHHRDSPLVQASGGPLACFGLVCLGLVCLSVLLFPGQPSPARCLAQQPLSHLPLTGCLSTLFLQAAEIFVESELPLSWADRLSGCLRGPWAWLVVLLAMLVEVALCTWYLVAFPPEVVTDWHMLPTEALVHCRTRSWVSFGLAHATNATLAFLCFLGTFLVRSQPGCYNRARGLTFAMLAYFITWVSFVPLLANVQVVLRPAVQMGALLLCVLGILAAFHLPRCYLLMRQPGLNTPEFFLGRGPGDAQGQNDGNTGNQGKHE

B1: thaumatin (protein)
chain: ATFEIVNRCSYTVWAAASKGDAALDAGGRQLNSGESWTINVEPGTKGGKIWARTDCYFDDSGSGICKTGDCGGLLRCKRFGRPPTTLAEFSLNQYGKDYIDISNIKGFNVPMDFSPTTRGCRGVRCAADIVGQCPAKLKAPGGGCNDACTVFQTSEYCCTTGKCGPTEYSRFFKRLCPDAFSYVLDKPTTVTCPGSSNYRVTFCPTA
modifications: Eight disulfides
notes: sweet-tasting plant protein, E957

Molecular target: T1, human TAS1R2-WT/TAS1R3-G832R
Test: Calcium mobilisation assay, TAS1R2-WT with TAS1R3 variant G832R
Format: cell-based
Conditions: for Max ΔF/F0: maximal signal amplitude
Description: The coding sequences for TAS1R2 and TAS1R3 were commercially synthesised, and the human codon was optimised for expression in human cells. The coding sequences of human TAS1R2 and TAS1R3 were subcloned and inserted into the mammalian expression vectors pcDNA6/myc-HisA and pcDNA4/myc-HisA (Invitrogen; Thermo Fisher Scientific; Illkirch, France) between the EcoRI and NotI restriction sites, generating the plasmids pcDNA6-TAS1R2 and pcDNA4-TAS1R3, respectively. To increase protein expression in mammalian cells, an upstream start codon was used, which was a sequence called MAX, corresponding to the QBI SP163 element also described in pcDNA4-HisMax (Invitrogen; Thermo Fisher Scientific; Illkirch, France). To measure the expression level of the receptor by immunohistochemistry, we used the FLAG sequence ([…]) in the C-terminal position, which encodes the FLAG tag epitope. SNP variants of TAS1R2 and TAS1R3 were constructed based on […], respectively, using site-directed mutagenesis (Genewiz; Leipzig, Germany).
The HEK293T cells were kindly provided by Jay P. Slack (Givaudan Flavors Corporation; Cincinnati, OH, USA). HEK293T cells stably transfected with Gα16gust44 [43, 67] were seeded in poly-D-lysine-coated clear-bottom black 96-well plates (0.35 × 10^5 cells/well) in high-glucose DMEM supplemented with 2 mM GlutaMAX, 10% dialysed foetal bovine serum with penicillin/streptomycin and G418 (400 μg/mL) at 37 °C and 6.3% CO2 in a humidified atmosphere as previously reported. […] As a negative control, HEK293T cells were mock-transfected with the empty expression vector. After a further 24 h of incubation, the HEK293T cells were washed with C1 buffer (130 mM NaCl, 5 mM KCl, 10 mM HEPES pH 7.4 and 2 mM CaCl2). The 96-well plates containing the cells were then stimulated with sweet-tasting compounds. […] Different concentration ranges were tested depending on the sweet compound injected. The Ca^2+ changes were expressed as fractional changes in fluorescent light intensity: ΔF/F = (F − F0)/F0, where F was the fluorescent light intensity at each point, and F0 was the value of emitted fluorescent light prior to stimulus application. To calculate dose–response relationships, the changes in fluorescence upon stimulus application were averaged, mock-subtracted and baseline-corrected. The dose–response data obtained were adjusted using a 4-parameter logistic equation. The half-maximal effective concentrations (EC50 values) and maximal signal amplitudes were calculated using SigmaPlot software (version 15.0) (Systat Software; San Jose, CA, USA).
For in vitro calcium mobilisation assay performed on hTAS1R2-SNPs, hTAS1R3-SNPs and mTAS1R3-I60T, 6 to 7 concentrations were tested for each sweet compound, plus buffer alone. All concentration–receptor combinations were measured in duplicate, and each experiment was repeated at least 4 times (8 wells/concentration). Results were expressed for each concentration as ΔF/F mean ± SEM and represented as dose–response curves.

| Molecule | R1 = Variant EC50/WT EC50 | Max ΔF/F0 | EC50 (read-out: EC50) [µM] | EC50 (brazzein) [µg/mL] |
| --- | --- | --- | --- | --- |
| CC1=CC(=O)NS(=O)(=O)O1 [Acesulfame K, acesulfame K] | 0.8 | 0.55 ± 0.03 | 468 ± 64 | – |
| O=S(=O)(O)NC1CCCCC1 [Cyclamate, cyclamate] | – | – | 998 ± 46 | – |
| C[C@H](CC[C@@H](O[C@@H]1O[C@H](CO[C@@H]2O[C@H](CO)[C@@H](O)[C@H](O)[C@H]2O)[C@@H](O)[C@H](O)[C@H]1O[C@@H]1O[C@H](CO)[C@@H](O)[C@H](O)[C@H]1O)C(C)(C)O)[C@H]1CC[C@@]2(C)[C@@H]3CC=C4[C@@H](CC[C@H](O[C@@H]5O[C@H](CO[C@@H]6O[C@H](CO)[C@@H](O)[C@H](O)[C@H]6O)[C@@H](O)[C@H](O)[C@H]5O)C4(C)C)[C@]3(C)[C@H](O)C[C@]12C [Mogroside V, mogroside V] | 0.6 | 1.23 ± 0.04 | 19.1 ± 1.7 | – |
| COc1ccc(CCC(=O)c2c(O)cc(O[C@@H]3O[C@H](CO)[C@@H](O)[C@H](O)[C@H]3O[C@@H]3O[C@@H](C)[C@H](O)[C@@H](O)[C@H]3O)cc2O)cc1O [NHDC, neohesperidin dihydrochalcone] | 0.6 | 1.03 ± 0.01 | 28.1 ± 12.3 | – |
| COC(=O)[C@H](Cc1ccccc1)NC(=O)[C@H](CC(=O)O)NCCC(C)(C)C [Neotame] | 0.7 | 0.88 ± 0.02 | 0.8 ± 0.07 | – |
| C=C(C)[C@@H]1CC=C(/C=N/O)CC1 [Perillartine, perillartine] | 0.5 | 1.18 ± 0.14 | 7.2 ± 3 | – |
| C=C1C[C@@]23CC[C@H]4[C@@](C)(CCC[C@@]4(C)C(=O)O[C@@H]4O[C@H](CO)[C@@H](O)[C@H](O[C@@H]5O[C@H](CO)[C@@H](O)[C@H](O)[C@H]5O)[C@H]4O[C@@H]4O[C@H](CO)[C@@H](O)[C@H](O)[C@H]4O)[C@@H]2CC[C@]1(O[C@@H]1O[C@H](CO)[C@@H](O)[C@H](O[C@@H]2O[C@H](CO)[C@@H](O)[C@H](O)[C@H]2O)[C@H]1O[C@@H]1O[C@H](CO)[C@@H](O)[C@H](O)[C@H]1O)C3 [Rebaudioside M, rebaudioside M] | 0.6 | 1.38 ± 0.07 | 22.7 ± 3.2 | – |
| OC[C@H]1O[C@H](O[C@]2(CCl)O[C@H](CCl)[C@@H](O)[C@@H]2O)[C@H](O)[C@@H](O)[C@H]1Cl [Sucralose] | 0.7 | 0.91 ± 0.02 | 81 ± 4 | – |
| brazzein (QDKCKKVYENYPVSKCQLANQCNYDCKLDKHARSGECFYDEKRNLQCICDYCEY; ends and bridges not checked; cysteine pairing not given here; UniProt P56552 1-54, looked up) [sweet-tasting protein obtained by recombinant production using the yeast Pichia pastoris] | 0.5 | 0.97 ± 0.07 | – | 52.8 ± 15.7 |
| thaumatin | 0.5 | 0.76 ± 0.03 | – | – |
| B1 | – | – | 5.7 ± 0.7 | – |

Reference: paper PMC11945486, “TAS1R2/TAS1R3 Single-Nucleotide Polymorphisms Affect Sweet Taste Receptor Activation by Sweeteners: The SWEET Project” (Nutrients, 2025)
